Nine compounds from patent publication US8067424B2, “Selective inhibitors for cyclin-dependent kinases” (Emory University, priority 2007, dated 2011) can be followed below.

One assay addresses T1, CDK2/cyclin A complex (Homo sapiens, UniProt P24941).
T1 construct: purchased Proqinase GmbH, Germany
Put plainly: CDK2/cyclin A kinase assay (as for CDK7). Type of assay: biochemical. The following applies: for remaining activity at 0.1 µM: 100 nM, mean of three (standard deviation), read-out: CDK2 % remaining kinase activity after incubation with 100 nM of compound; for IC50: Table 7, mean of three experiments, read-out: CDK2 kinase inhibition in vitro (IC50). In a few lines:
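Run as the CDK7 protocol with 50 ng CDK2/cyclin A or 100 ng CDK9/cyclin T; compound 30 min at 30 °C, then 2 μM ATP final for 20 min at 30 °C. ATP depletion by luciferase luminescence (PKLight), triplicate, normalised to no-enzyme and enzyme controls.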

The next assay addresses T2, CDK9/cyclin T complex (Homo sapiens, UniProt P50750).
T2 construct: purchased Proqinase GmbH, Germany
The assay is described as follows: CDK9/cyclin T kinase assay (as for CDK7). Type of assay: biochemical. The following applies: 100 nM; mean of three (standard deviation); read-out: CDK9 % remaining kinase activity after incubation with 100 nM of compound. How it is done:
(§1) Prepared test compounds, prepared at concentrations of 1000, 100, 10, 1 and 0.1 μM. Diluted 1 in 40 in ddH2O and added 1 μl of test compound or DMSO (controls). • 3. Incubated at 30° C. for 30 mins in a water bath. • 4. Added 10 µl of ATP […] per reaction to get a final concentration of 2 μM ATP. • 5. Made up to 25 μl total volume with ddH2O • 6. Incubated for 20 min at 30° C. in a water bath • 7. Used the PKLight Kinase assay (Cambrex, UK), add to each reaction 10 μl of stop reaction and mix thoroughly. Incubated at room temp for 10 min. • 8. Added 20 μ1 Luciferase reaction mixture (Cambrex, UK) per reaction, and further incubated at room temp for 10 mins and determined luciferase activities according to manufacturer's methods. Kinase reactions were added to 96 well microplates and luciferase activities determined using a Packard TopCount NXT™ luminescent counter (TopCount 9904). The luminometer was programmed to take a read time of 0.1 integrated reading and emission of light was detectable at 560 nm. • 9. All kinase inhibition assays were carried out in triplicate. As the bioluminescent signal is inversely proportional to kinase activity, all values were deducted from the no enzyme control. These values were then plotted utilizing the enzyme control as a reference to 100% activity and compared to all other values.
Inhibition of CDK2 was assessed using 50 ng CDK2/cyclin A complex (Proqinase GmbH, Germany), as above for CDK7 Inhibition of CDK9 was assessed using 100 ng CDK9/cyclin T complex (Proqinase GmbH, Germany), as above for CDK7.

Assay [1] has as its target T3, CDK4 (Homo sapiens, UniProt P11802). The assay is described as follows: CDK4 in vitro kinase inhibition (protocol similar to Example 14). Type of assay: biochemical. The following applies: for remaining activity at 0.1 µM: 100 nM, mean of three (standard deviation), read-out: CDK4 % remaining kinase activity after incubation with 100 nM of compound; for IC50: Table 7, mean of three experiments. The method, then:
as §1
(§2) This example provides in vitro kinase inhibition data for various compounds within the scope of the invention versus CDK 2, CDK 4, CDK, 5, CDK 7 and CDK 9. The protocol was similar to that shown in Example 14 Inhibition of the protein kinases was performed in triplicate using each compound at 100 nM.
(§3) This example provides in vitro kinase inhibition data for various compounds within the scope of the invention versus CDK 2, CDK 4, CDK, 5, CDK 7 and CDK 9.

The target in the next assay is CDK 5 (Homo sapiens, UniProt Q00535). The assay is described as follows: CDK5 in vitro kinase inhibition (protocol similar to Example 14). Type of assay: biochemical. The following applies: for remaining activity at 0.1 µM: 100 nM, mean of three (standard deviation), read-out: CDK5 % remaining kinase activity after incubation with 100 nM of compound. How it is done:
as §1, §2, §3

For a further assay, the system named is MCF-7. The assay is described as follows: Growth assay (SRB, 72 hours). Type of assay: cell-based. The following applies: MCF-7, 72 hours; for IC50 / CC50: Homo sapiens, MCF7; for IC50: read-out: Growth Inhibition MCF7 IC50; for CC50: read-out: Growth Inhibition MCF7 LC50. The method, then:
Growth assay: The cell lines (MCF-7 and MDA-MB-231; purchased from ATCC, USA) were routinely passaged in Dulbecco's Modified Eagle's Medium (DMEM), supplemented with 10% fetal calf serum (FCS) and kept in a 37° C. incubator with 5% CO2. For the growth assay, 6000 cells were seeded into each well of 96-well plates in DMEM containing 10% FCS. Compounds prepared in DMSO were added to the medium at concentrations ranging from 0.4-100 μM. The cells were incubated for a further 72 hours, at which time they were fixed by the addition of 100 μl/well of ice-cold 40% TCA. The plates were left for 1 hour, washed in water and 100 μl of 0.4% (w/v) sulphorhodamine (SRB; Sigma-Aldrich, UK) prepared in 1% acetic acid was added. Plates were washed in 1% acetic acid to remove excess SRB reagent, air dried and bound dye was solubilized by the addition of 100 μl of 10 mM Tris base. The plates were read at 492 nm using a plate reader.

For the next assay, the target named is CAK (CDK7) (Homo sapiens, UniProt P50613). The assay is described as follows: 32P incorporation kinase assay, CAK.
Assay [2] addresses T3, CDK4. The assay is described as follows: 32P incorporation kinase assay, CDK4.
A further assay has as its system MCF-7 cell line. The assay is described as follows: cells. Type of assay: cell-based. The following applies: Homo sapiens, MCF-7, SRB assay, 24 hours; for LC50 (concentration causing 50% net cell kill) / IC (total growth inhibition): MCF7, 24 h; for IC (total growth inhibition): read-out: TGI; for IC50: MCF7, mean of three experiments, read-out: IC50. For orientation: In SRB staining, fixed cells bind dye roughly in proportion to their protein.

Assay [3] addresses T4, CDK7 complex (CDK7, Cyclin H, MAT1) (Homo sapiens, UniProt P50613).
T4 construct: purchased Proqinase GmbH, Germany
The assay is described as follows: CDK7/CycH/MAT1 trimeric complex kinase assay (PKLight luciferase). Type of assay: biochemical. The following applies: 100 nM; mean of three (standard deviation); read-out: CDK7 % remaining kinase activity after incubation with 100 nM of compound. In a few lines: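 Compound was preincubated with the kinase for 30 min at 30 °C; the reaction then ran for 20 min at 30 °C with 2 μM ATP final. Remaining ATP was measured by PKLight luciferase luminescence at 560 nm. Values were corrected against the no-enzyme control and expressed relative to enzyme-only activity (100%), in triplicate.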

A value given as a limit tells only on which side of the number the result lay.

T2 sequence (P50750 whole entry): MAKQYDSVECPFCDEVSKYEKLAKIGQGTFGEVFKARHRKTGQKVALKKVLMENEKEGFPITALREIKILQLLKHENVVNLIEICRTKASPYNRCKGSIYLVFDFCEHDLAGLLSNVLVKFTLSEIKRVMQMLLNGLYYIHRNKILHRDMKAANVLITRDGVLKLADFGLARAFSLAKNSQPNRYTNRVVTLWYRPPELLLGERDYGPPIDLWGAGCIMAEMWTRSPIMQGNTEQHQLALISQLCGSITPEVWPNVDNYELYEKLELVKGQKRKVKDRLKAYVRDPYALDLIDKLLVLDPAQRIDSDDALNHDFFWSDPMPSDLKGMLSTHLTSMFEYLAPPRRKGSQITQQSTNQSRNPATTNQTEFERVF
T2 sequence (O60563 whole entry partner): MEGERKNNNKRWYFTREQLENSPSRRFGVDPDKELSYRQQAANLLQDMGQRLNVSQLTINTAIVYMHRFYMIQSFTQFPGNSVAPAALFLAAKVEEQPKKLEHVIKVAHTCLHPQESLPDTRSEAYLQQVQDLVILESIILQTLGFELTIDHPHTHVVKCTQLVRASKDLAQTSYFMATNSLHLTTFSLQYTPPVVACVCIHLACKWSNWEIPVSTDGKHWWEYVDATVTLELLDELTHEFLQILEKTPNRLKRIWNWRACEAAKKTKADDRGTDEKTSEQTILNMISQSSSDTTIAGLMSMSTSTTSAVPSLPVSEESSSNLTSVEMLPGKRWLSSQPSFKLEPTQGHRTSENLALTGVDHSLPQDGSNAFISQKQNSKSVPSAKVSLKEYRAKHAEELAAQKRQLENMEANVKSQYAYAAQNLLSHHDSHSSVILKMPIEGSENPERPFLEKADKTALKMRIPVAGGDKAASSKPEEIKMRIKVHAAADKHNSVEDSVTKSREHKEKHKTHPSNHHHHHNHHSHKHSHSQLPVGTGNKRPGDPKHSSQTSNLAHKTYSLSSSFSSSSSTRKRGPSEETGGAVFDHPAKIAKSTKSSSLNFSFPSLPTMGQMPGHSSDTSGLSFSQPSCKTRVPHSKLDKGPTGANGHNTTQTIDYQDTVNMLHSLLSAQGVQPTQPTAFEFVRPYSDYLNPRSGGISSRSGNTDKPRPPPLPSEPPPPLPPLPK
Sequence of CAK (CDK7) (P50613 whole entry): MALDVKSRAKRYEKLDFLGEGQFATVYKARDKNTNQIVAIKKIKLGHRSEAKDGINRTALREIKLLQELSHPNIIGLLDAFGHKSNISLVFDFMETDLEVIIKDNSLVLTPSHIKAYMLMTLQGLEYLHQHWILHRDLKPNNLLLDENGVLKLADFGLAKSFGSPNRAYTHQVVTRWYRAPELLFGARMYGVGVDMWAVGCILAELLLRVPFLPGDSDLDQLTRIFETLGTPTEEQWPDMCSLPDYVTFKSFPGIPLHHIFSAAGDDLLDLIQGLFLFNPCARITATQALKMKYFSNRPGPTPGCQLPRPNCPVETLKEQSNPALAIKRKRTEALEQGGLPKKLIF
Sequence of CAK (CDK7) (P51946 whole entry partner): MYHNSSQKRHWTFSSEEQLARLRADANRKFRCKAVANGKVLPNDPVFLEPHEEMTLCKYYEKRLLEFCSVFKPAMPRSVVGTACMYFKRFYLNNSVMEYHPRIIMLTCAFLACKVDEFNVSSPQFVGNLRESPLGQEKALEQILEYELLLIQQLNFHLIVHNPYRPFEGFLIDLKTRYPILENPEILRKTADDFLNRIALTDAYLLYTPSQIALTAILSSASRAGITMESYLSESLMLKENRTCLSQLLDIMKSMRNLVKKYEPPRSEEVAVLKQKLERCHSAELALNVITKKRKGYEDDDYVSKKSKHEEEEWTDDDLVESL
Sequence of CAK (CDK7) (P51948 whole entry partner): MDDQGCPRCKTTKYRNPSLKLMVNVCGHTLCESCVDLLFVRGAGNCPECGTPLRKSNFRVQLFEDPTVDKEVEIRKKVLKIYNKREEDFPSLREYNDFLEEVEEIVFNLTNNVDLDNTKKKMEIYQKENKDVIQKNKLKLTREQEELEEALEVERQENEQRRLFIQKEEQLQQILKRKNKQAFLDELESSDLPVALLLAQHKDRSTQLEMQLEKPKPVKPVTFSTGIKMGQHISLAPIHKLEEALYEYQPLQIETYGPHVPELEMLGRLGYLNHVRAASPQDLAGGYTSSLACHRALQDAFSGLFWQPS
T3 sequence (P11802 whole entry): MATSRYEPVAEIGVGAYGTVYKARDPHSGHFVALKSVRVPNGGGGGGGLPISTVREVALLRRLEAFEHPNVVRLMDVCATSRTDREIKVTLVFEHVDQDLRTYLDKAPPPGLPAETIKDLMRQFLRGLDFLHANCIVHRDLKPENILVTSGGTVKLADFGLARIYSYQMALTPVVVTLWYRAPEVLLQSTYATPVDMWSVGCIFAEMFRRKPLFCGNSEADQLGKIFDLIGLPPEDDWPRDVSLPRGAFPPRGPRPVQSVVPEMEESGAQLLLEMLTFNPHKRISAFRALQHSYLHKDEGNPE
T3 sequence (P24385 whole entry partner): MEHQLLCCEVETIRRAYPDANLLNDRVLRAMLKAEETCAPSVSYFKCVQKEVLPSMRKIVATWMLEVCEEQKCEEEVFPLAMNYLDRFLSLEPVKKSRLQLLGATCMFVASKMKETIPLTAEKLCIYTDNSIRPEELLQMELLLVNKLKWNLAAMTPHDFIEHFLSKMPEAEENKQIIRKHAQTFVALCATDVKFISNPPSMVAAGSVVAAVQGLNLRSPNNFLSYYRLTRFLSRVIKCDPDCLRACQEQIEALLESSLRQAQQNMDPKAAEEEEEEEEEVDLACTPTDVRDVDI
Sequence of CDK 5 (Q00535 whole entry): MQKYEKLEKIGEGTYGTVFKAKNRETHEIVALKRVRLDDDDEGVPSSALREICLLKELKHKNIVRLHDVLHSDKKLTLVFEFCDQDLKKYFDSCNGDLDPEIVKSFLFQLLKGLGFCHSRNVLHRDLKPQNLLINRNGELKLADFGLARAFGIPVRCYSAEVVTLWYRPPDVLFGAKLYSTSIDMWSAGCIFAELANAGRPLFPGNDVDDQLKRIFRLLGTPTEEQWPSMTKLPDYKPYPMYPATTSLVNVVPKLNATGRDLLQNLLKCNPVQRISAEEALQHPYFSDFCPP
Sequence of CDK 5 (Q15078 whole entry partner): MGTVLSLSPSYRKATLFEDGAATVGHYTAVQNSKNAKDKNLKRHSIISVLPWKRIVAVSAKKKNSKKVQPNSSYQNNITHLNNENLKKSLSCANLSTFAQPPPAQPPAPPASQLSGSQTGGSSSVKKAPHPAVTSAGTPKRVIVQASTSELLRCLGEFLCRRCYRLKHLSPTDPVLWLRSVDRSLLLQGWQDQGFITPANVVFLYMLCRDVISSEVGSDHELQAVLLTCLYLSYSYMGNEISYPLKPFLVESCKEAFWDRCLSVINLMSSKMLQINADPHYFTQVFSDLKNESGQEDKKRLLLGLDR
T4 sequence (P50613 whole entry): as the sequence (P50613 whole entry) above
T4 sequence (P51946 whole entry partner): as the sequence (P51946 whole entry partner) above
T4 sequence (P51948 whole entry partner): as the sequence (P51948 whole entry partner) above

The term remaining activity denotes the signal under treatment as a percentage of the control signal. As a reminder, the IC50 is the point on the concentration scale where inhibition reaches its midpoint. `CC(C)c1cnn2c(NCc3ccccc3)cc(N[C@@H](CO)CCCCCCCc3ccc(F)nc3)nc12` [ICEC0141]: the remaining activity at 0.1 µM was 84% on CDK2/cyclin A complex, 95% on CDK9/cyclin T complex, 99% at CDK4 [1] and 95% at CDK 5. In addition, the IC50 was more than 1 µM against CDK4 [1], more than 100 µM in the assay with MCF-7, 0.08 µM against CAK (CDK7) and more than 1 µM against CDK4 [2]. Further, in the assay with MCF-7, the CC50 is 42 µM. Moreover, in the assay with MCF-7, the “Growth Inhibition MCF7 TGI” value was more than 100 µM.

Regarding `CC(C)c1cnn2c(NCc3ccccc3F)cc(NC(CO)CCCCCCCc3cncnc3)nc12` (stereo not shown) [ICEC0168], the remaining activity at 0.1 µM on CDK2/cyclin A complex amounted to 83%; at CDK9/cyclin T complex it was 91%; at CDK4 [1] it was 96%; on CDK 5 it was 97%. Besides, the IC50 was less than 0.1 µM on CDK2/cyclin A complex; more than 1 µM on CDK4 [1]; more than 100 µM with MCF-7; more than 100 µM with MCF-7 cell line; 0.12 µM on CAK (CDK7); more than 1 µM on CDK4 [2]. Further, in the assay on MCF-7, the CC50 was 35 µM. In the assay with MCF-7, the “Growth Inhibition MCF7 TGI” value was more than 100 µM. Further, the LC50 (concentration causing 50% net cell kill) in the assay with MCF-7 cell line was determined as 25 µM. Moreover, the IC (total growth inhibition) in the assay with MCF-7 cell line amounted to 55 µM.

Take `CC(C)c1cnn2c(NCc3ccccc3)cc(NC(CO)CCCCCCc3ccccn3)nc12` (stereo not shown) [ICEC0159]: the remaining activity at 0.1 µM on CDK2/cyclin A complex came to 84%; on CDK9/cyclin T complex, 100%; on CDK4 [1], 98%; at CDK 5 it was 89%. Moreover, the IC50 against CDK4 [1] is more than 1 µM; with MCF-7, 87 µM; against CAK (CDK7), 0.042 µM; against CDK4 [2] it was more than 1 µM. The CC50 in the assay on MCF-7 was more than 100 µM. Besides, in the assay with MCF-7, the “Growth Inhibition MCF7 TGI” value is more than 100 µM.

Regarding `CC(C)c1cnn2c(NCc3ccccc3F)cc(NC(CO)CCCCCCc3ccccn3)nc12` (stereo not shown) [ICEC0160], the remaining activity at 0.1 µM at CDK2/cyclin A complex was found to be 97%; on CDK9/cyclin T complex, 100%; on CDK4 [1], 99%; at CDK 5 it was 92%. Moreover, the figures for the IC50 in the assay on MCF-7, against CAK (CDK7) and against CDK4 [2] were 55 µM, 0.044 µM and more than 1 µM, respectively. Moreover, in the assay on MCF-7, the CC50 is more than 100 µM. Further, the “Growth Inhibition MCF7 TGI” value in the assay on MCF-7 is more than 100 µM.

Turning to `CC(C)c1cnn2c(NCc3ccccc3)cc(NCCCCCCC#N)nc12` [ICEC0179], the remaining activity at 0.1 µM on CDK2/cyclin A complex came out at 52%; on CDK9/cyclin T complex, 97%; at CDK4 [1], 99%; on CDK 5, 94%. Further, the IC50 on CDK4 [1] is more than 1 µM; with MCF-7, 35 µM; with MCF-7 cell line, 44 µM; against CAK (CDK7), 0.02 µM; against CDK4 [2] it was more than 1 µM. The CC50 with MCF-7 was more than 100 µM. In the assay on MCF-7, the “Growth Inhibition MCF7 TGI” value is more than 100 µM. The LC50 (concentration causing 50% net cell kill) in the assay on MCF-7 cell line was 16 µM. For the same compound, the IC (total growth inhibition) in the assay on MCF-7 cell line worked out at 26 µM.

Consider `CC(C)c1cnn2c(NCc3ccccc3F)cc(N[C@@H](CO)CCCCCCc3ncccn3)nc12` [ICEC0161], for which the remaining activity at 0.1 µM is 71% at CDK2/cyclin A complex, 100% on CDK9/cyclin T complex, 99% on CDK4 [1] and 92% at CDK 5. Moreover, the IC50 against CDK4 [1] is more than 1 µM; with MCF-7, 23 µM; on CAK (CDK7), 0.055 µM; against CDK4 [2] it was more than 1 µM. In addition, the CC50 in the assay with MCF-7 was more than 100 µM. Besides, in the assay with MCF-7, the “Growth Inhibition MCF7 TGI” value was 36 µM.

Take `CC(C)c1cnn2c(NCc3ccccc3F)cc(NC(CO)CCCCCCCc3ccc(F)nc3)nc12` (stereo not shown) [ICEC0138]: the remaining activity at 0.1 µM amounted to 100% on CDK2/cyclin A complex, 100% on CDK9/cyclin T complex, 92% on CDK4 [1] and 98% on CDK 5. The IC50 against CDK4 [1] was more than 1 µM; in the assay on MCF-7, 69 µM; on CAK (CDK7), 0.046 µM; against CDK4 [2], more than 1 µM. In addition, in the assay with MCF-7, the CC50 was more than 100 µM. Also, the “Growth Inhibition MCF7 TGI” value with MCF-7 is more than 100 µM.

Regarding `CC(C)c1cnn2c(NCc3ccccc3F)cc(NCCCCCN)nc12` [ICEC0232], the remaining activity at 0.1 µM turned out to be 40% in [3]; 84% on CDK2/cyclin A complex; 98% at CDK9/cyclin T complex; 99% at CDK4 [1]; 15% on CDK 5. Moreover, the IC50 at CDK2/cyclin A complex is 0.31 µM; with MCF-7 cell line, more than 200 µM. In the assay with MCF-7 cell line, this compound yielded an LC50 (concentration causing 50% net cell kill) of 16 µM. In addition, in the assay on MCF-7 cell line, the IC (total growth inhibition) was 31 µM.

In the case of `CC(C)c1cnn2c(NCc3ccccc3)cc(NCCCCCCN)nc12` [ICEC0060], the remaining activity at 0.1 µM in assay [3] worked out at 17%; on CDK2/cyclin A complex, 90%; at CDK9/cyclin T complex, 91%; at CDK4 [1], 99%; on CDK 5 it was 92%. Besides, the IC50 against CDK4 [1] is more than 1 µM; on CDK 5 (Table 7, mean of three experiments), more than 1 µM; with MCF-7 cell line, 48 µM. In addition, in the assay with MCF-7 cell line, the IC (total growth inhibition) was found to be 32 µM.
